The target in experiment [1] is T1, binding of p85 to HGF/SF receptor (Bos taurus, UniProt P23727).
T1 construct: made in house; host or cells: Sf9 insect cells (baculovirus), for both p85 and the receptor
Nature of the experiment: Competition of phosphopeptides with p85 for association with immobilized recombinant HGF/SF receptor (in vitro kinase assay readout). Further details: species or system human. An outline of the steps:
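Sf9 lysates expressing p85 were pre-incubated 1 h at 4°C with phosphopeptides (10 μM; also 10 nM, 100 nM, 1 μM), then bound to immunoprecipitated baculovirus-expressed receptor pre-phosphorylated with 10 μM cold ATP. Bound p85 was detected by in vitro kinase labelling with [γ-32P]ATP, 15 min at 25°C, and SDS-PAGE.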

In experiment [2] the test system is binding of PI 3-kinase holoenzyme to HGF/SF receptor. The experiment is described as follows: Competition of phosphopeptides with PI 3-kinase holoenzyme (A549 cytosolic extracts) for association with recombinant HGF/SF receptor (PI 3-kinase activity assay). Particulars: summary statement in the description. Further details: species or system human. The method, then:
FIG. 3. Inhibition of binding of PI 3-kinase holoenzyme to HGF/SF receptor by tyrosine-phosphorylated peptides. The phosphopeptides which efficiently out-competed p85 (FIG. 1) were assayed for the ability to interfere with binding of the PI 3-kinase holoenzyme to the HGF/SF receptor. Cytosolic extracts from three days-starved A549 cells were pre-incubated with each of the phosphopeptides (10 μM) prior to incubation with the immobilized recombinant HGF/SF receptor. The presence of receptor-associated PI 3-kinase in the immunocomplexes was determined by PI 3-kinase activity assay, as described in Materials and Methods of Example 4. The position of the phosphatidylinositol-3-phosphate (PIP) product of the PI 3-kinase reaction is indicated.
In vitro association experiments. Sf9 cells expressing the recombinant HGF/SF receptor (approximately 4×10^6 cells/point) were lysed 36 hours after infection in buffer A (10 mM Tris-HCl buffer pH 7.5, 10% glycerol, 1% Triton X-100, 150 mM NaCl, 5 mM EDTA), supplemented with 0.2 mM phenyl-methylsulfonyl fluoride, 1 μg/ml leupeptin, 0.1 TIU/ml aprotinin and 1 μg/ml pepstatin. […]
The presence of the p85 subunit of the PI 3-kinase in the receptor immunoprecipitate was determined by: i) labelling of the receptor and associated proteins with [γ-^32 P]ATP by in vitro kinase assay; ii) Western immunoblotting; iii) PI 3-kinase activity assay. […]

Each structure is given as a SMILES string. Residues, ends and D or L forms follow the SMILES beside them.

T1 sequence (P23727 whole entry): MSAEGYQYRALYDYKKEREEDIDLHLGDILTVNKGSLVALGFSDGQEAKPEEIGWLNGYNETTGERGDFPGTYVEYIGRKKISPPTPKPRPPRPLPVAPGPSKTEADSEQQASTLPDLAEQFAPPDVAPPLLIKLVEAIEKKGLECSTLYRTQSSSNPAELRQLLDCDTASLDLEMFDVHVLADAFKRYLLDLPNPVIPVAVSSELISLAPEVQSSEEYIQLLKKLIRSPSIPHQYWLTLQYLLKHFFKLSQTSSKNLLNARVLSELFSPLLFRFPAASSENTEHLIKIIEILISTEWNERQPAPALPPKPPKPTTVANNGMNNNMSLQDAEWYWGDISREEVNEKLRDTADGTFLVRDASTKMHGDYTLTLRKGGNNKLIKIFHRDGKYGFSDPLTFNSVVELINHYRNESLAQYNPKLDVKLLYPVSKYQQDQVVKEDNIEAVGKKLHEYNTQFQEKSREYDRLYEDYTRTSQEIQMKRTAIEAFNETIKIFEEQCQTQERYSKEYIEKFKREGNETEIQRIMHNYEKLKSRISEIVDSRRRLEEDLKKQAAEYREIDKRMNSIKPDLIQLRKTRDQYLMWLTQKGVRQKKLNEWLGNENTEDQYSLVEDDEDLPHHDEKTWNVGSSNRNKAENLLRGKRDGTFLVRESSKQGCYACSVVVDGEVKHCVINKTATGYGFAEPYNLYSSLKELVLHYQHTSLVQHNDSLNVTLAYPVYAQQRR

In the case of `CSCC[C@H](NC(=O)[C@@H](NC(=O)[C@H](CCC(=O)O)NC(=O)[C@@H](N)Cc1ccc(OP(=O)(O)O)cc1)C(C)C)C(=O)N[C@@H](CC(C)C)C(=O)N[C@@H](CCCCN)C(=O)N[C@@H](CS)C(=O)N[C@@H](Cc1c[nH]c2ccccc12)C(=O)O` [H-Tyr*-Glu-Val-Met-Leu-Lys-Cys-Trp-OH] (HELM PEPTIDE1{[N[C@@H](Cc1ccc(OP(=O)(O)O)cc1)C(=O)[*:2]].E.V.M.L.K.C.W}$$$$V2.0), in experiment [1] (phosphopeptide 10 μM, p85 from Sf9 lysates, FIG. 1), the “Inhibition of binding of p85 to HGF/SF receptor” value is given as “efficiently outcompeted p85”. In addition, the “Efficiency at outcompeting p85 (relative affinity for p85)” value in experiment [1] (phosphopeptides at 10 nM, 100 nM, 1 μM, FIG. 2, rank order SEQ. ID NO: 19, then 22, 20, 18) is given as “highest”. Also, the “Binding to PI 3-kinase” value in experiment [2] is reported as “capable of binding to PI 3-kinase”.

For the origin of these results see patent publication US5912183A, “Peptide inhibitors of mitogenesis and motogenesis” (Pharmacia & Upjohn S.p.A., priority 1993, dated 1999).
